From patent publication US10285938B2 (ISSAR Pharmaceutical, priority 2015, dated 2019) come the findings set out here.

Read-outs that look alike come from different tables or passages of the source. No end group written: not given here.

In one data set the test system is burn wound healing. Also on record: species or system human. The settings on record: in vivo. The text has this:
None of the XYLENTRA® treated volunteers developed any adverse reaction.

The conditions of data set [1]: human, in vivo. An excerpt: There was an absence of any symptoms or signs of toxicity at the evaluation site and considered a measure of primary efficacy/tolerability was established in this study. […] Treatment Groups (2% and 4%) were similar in efficacy/tolerability and safety parameters studied.
Data set [2] is described as follows: subacute toxicity study in rabbits. It is filed as in vivo.
In data set [3] the test system is Staphylococcus aureus MTCC 96. The class given is cell-based.
A short description of data set [4]: subacute toxicity study in rats. It is filed as in vivo.
The subject of data set [5] is Pseudomonas aeroginosa MTCC 741. It is filed as cell-based. An excerpt: Whereas, 100% killing of Pseudomonas aeroginosa was observed on exposure to the test compound for 1 hr at pH 8.4 and an exposure of 4 hrs was required for 100% killing at pH 7.2.

From the text for partial thickness burns: Patients of either gender with partial thickness burns referred to a tertiary referral center Number of Subjects Enrolled: 160
Multi-center, double-blind, randomized parallel design study in 200 patients of partial thickness burns • 2. […] Participants satisfying the inclusion criteria were hospitalized for the study duration and were randomized in a 1:1 ratio to receive either SSD 1% or XYLENTRA®. Randomization was done specific for each center. Allocation concealment was maintained. The drugs were topically administered once daily for 4 weeks or until complete wound healing, whichever was earlier. The patients were discharged only after complete healing of wound and recovery from other secondary effects of burns. A follow up was done on the 3rd month to record the frequency of scars^10, keloids or contracture formation. • b. […] Either sex • 2. Age 18-60 years • 3. Those diagnosed with partial thickness thermal burns as per clinically • 4. Total surface area of the burn 10-20% as per Wallace rule of nine • 5. Willing to give written informed consent. • 6. Females of child-bearing potential with a negative urine pregnancy test on Day 1 • 7. […]
Safety was measured by pretreatment and post treatment biochemical investigations (Hematological variables) and physical examination. Subjects were thoroughly monitored for adverse effects.

FAKKFAKKFAKFAKKFAKFAFAF [XYLENTRA®]: in the data set on burn wound healing, the “systemic absorption (pharmacokinetic data)” value was “absence of systemic absorption”. Moreover, the “volunteers who developed any adverse reaction” value with burn wound healing was “None”. Besides, the “mild redness and itching” value in data set [1] is given as 2/24. In data set [1], the safety of cream result is “safe”. In data set [1], the “systemic absorption (pharmacokinetic data by HPLC)” value was “no systemic absorption”. Further, the mortality entry in data set [2] and in data set [4] was “No mortality” each time. Further, the “abnormalities in physical, physiological, biochemical and histo-pathological parameters” value in data set [2] (application of the peptide) and in data set [4] (application of the peptide) was “No abnormalities” in each case. For the same sequence, the “killing of Staphylococcus aureus” value in data set [3] (MTCC 96, 1 h, 1 μM, pH 7.2) is recorded as 100%; in data set [3] (MTCC 96, 1 h, 5 μM, pH 7.2), 100%; in data set [3] (MTCC 96, 4 h, pH 8.4), 100%. Moreover, the “killing of Pseudomonas aeroginosa” value was 100% in data set [5] (MTCC 741, 1 h, pH 8.4) and 100% in data set [5] (MTCC 741, 4 h, pH 7.2). In the data set on partial thickness burns (Phase III), the “serious adverse events and deaths” value is “No serious adverse events and no deaths”. Moreover, in the data set on partial thickness burns (mostly skin related disorders), the “nature of treatment emergent adverse events” value was “mild”.
